Experimental data published in US11814396B2, “Sesquiterpenoid analogs” (Purdue Research Foundation, priority 2018, dated 2023).
Values belong to the compound of their own block, whether it stands above or below them.

What was measured:
[1] = tested on: production of nitric oxide; conditions: reported; cited from earlier work
[2] = tested on: HeLa cells; test: Visualization of DNA double strand breaks by γH2AX staining (confocal microscopy); format: cell-based
Procedure: HeLa cells were seeded (250′000 cells/mL) in a 6-well plate and reverse transfected with scrambled siRNA or POLE3 siRNA using RNAiMAX for two days. Cells were trypsinizned, seeded (150′000 cells/mL) in a 24-well plate containing a coverslip and left overnight to attach and grow. […] Cells were washed one time with PBS and fixed with methanol at −20° C. for 10 min. Cells were washed again two times with PBS and coverslip was transferred to a wet box.
Blocking was performed with a 5% bovine serum albumin (BSA) solution in PBS for 30 min. Cells were washed one time with PBS 0.1% BSA and rabbit antibody directed against H2AX pSer^139 (Sigma Aldrich H5912, 1/250 in PBS 0.1% BSA) was added and incubated for one hour at r.t. Cells were washed three times with PBS 0.1% BSA and incubated for one hour with anti-rabbit IgG Alexa Fluor 488 (Jackson, 1/200 in PBS 0.1% BSA). Cells were washed three times with PBS 0.1% BSA, one time with PBS, one time with water and then mounted on a slide with ProLong Gold antifade mountant with DAPI (Life Technologies). Cells were visualized with an LSM 700 confocal microscope (Zeiss).
Induced DNA damage was measured by confocal microscopy using γH2AX staining as marker.

[3] = target: T1, SHP2 (Homo sapiens, UniProt Q06124); test: PTP inhibition study with pNPP as substrate; format: biochemical; conditions: pH 7, 25° C.; for IC50: 15 min
T1 sequence (Q06124 1-593): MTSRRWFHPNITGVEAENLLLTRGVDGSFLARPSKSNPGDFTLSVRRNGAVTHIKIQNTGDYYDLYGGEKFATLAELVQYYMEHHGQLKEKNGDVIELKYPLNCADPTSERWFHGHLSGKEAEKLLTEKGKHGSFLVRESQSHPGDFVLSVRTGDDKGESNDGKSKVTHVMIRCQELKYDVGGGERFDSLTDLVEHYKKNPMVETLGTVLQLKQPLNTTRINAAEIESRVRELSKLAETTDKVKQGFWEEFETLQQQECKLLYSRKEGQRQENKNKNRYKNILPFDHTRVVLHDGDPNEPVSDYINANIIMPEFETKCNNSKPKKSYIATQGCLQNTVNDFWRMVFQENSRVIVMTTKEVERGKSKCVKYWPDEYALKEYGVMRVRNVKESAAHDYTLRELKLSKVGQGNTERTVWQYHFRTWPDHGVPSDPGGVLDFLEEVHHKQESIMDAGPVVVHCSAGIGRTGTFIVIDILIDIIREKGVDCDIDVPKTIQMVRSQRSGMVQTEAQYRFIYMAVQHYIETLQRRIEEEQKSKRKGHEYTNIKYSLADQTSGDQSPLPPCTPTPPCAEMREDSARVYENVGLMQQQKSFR
Procedure: PTP Inhibition Study. Abies sesquiterpenoids and their analogs were evaluated for their ability to inhibit the reaction catalyzed by PTP1B and SHP2 using p-nitrophenyl phosphatae (pNPP) as a substrate at pH 7 and 25° C. […] The reaction was quenched after 3 (PTP1B) or 15 (SHP2) min by the addition of 25 μl of 5N NaOH. The absorbance at 405 nm was detected by a Spectra MAX 384 PLUS microplate spectrophotometer (Molecular Devices). IC50 values were calculated by fitting the absorbance at 405 nm versus inhibitor concentration to the following equation: A1/A0=IC50/(IC50+[I]) wherein A1 is the absorbance at 405 nm of the sample in the presence of inhibitor; A0 is the absorbance at 405 nm in the absence of inhibitor; and [I] is the concentration of the inhibitor.

[4] = target: T2, POLE3 (Homo sapiens, UniProt Q9NRF9); test: Global proteomics profiling versus POLE3 knockdown; format: cell-based; conditions: HeLa cells
T2 construct: endogenous in cells; host or cells: HeLa
T2 sequence (Q9NRF9 1-147): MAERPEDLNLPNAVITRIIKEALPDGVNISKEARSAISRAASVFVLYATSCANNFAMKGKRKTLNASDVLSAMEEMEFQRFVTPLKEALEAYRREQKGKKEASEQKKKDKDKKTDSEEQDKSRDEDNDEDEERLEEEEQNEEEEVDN
From the text: To understand whether binding of Example 2 to C51 of POLE3 is productive and leads to the loss of function of this protein, POLE3 was knocked down in HeLa cells using siRNA and compared by global proteomics the protein expression profile in these cells versus cells treated with compound Example 2 or DMSO as control. […] Possibly as a compensatory effect, we also observed fourfold upregulation of POLE, another subunit of DNA polymerase ε.
Knockdown of POLE3 was achieved using RNAiMAx (Invitrogen) and POLE3 siRNA (Dharmacon) via reverse transfection according to the manual of the manufacturer. Briefly, 9 μL of 20 μM siRNA was mixed with 9 μL of RNAiMax reagent in 500 μL OptiMEM and incubated for 20 min. at r.t. […] Samples were analyzed by LC-MS/MS (see below) and the MS data was processed with MaxQuant (see below).
Peptides were resuspended in water with 0.1% formic acid (FA) and analyzed using EASY-nLC 1200 nano-UHPLC coupled to Q Exactive HF-X Quadrupole-Orbitrap mass spectrometer (Thermo Scientific). […]
The MS data was analyzed with MaxQuant (V1.6.1.0) and searched against the human proteome (Uniprot) and a common list of contaminants (included in MaxQuant). […] The minimum peptide length was set to 6 amino acids and peptide re-quantification, label-free quantification (MaxLFQ) and “match between runs” were enabled. […]

[5] = target: T3, POLE3-GFP (Homo sapiens, UniProt Q9NRF9); test: Gel-based determination of kinetic parameters Ki and kinact (Kitz and Wilson method); format: binding; conditions: lysate of 293T cells overexpressing WT POLE3-GFP, 37° C., competition with 30 μM Example 4
T3 construct: expressed in transfected cells; host or cells: 293T
T3 sequence (Q9NRF9 1-147): T2 sequence (Q9NRF9 1-147)
Procedure: 293T cells in a 3.5 cm Petri dish were transfected with POLE3-WT-GFP-pEXP or […] using PEI-MAX. After 24 hours, lysates were prepared as described above. Proteins (1 mg/mL, 25 μL) were incubated with indicated compounds at indicated concentrations (25× stock in DMSO) for three hours at 37° C. Subsequently, 30 μM Example 4 (25× stock in DMSO) was added for one hour at r.t. Click chemistry, reducing SDS-PAGE and visualization were performed as described above. Proteins were transferred to a PVDF membrane using a Trans-Blot Turbo transfer system (Bio-Rad). Membrane was blocked with 3% BSA in Tris-Buffered Saline with 0.1% Tween 20 (TBST) for one hour at r.t. Mouse monoclonal antibody against GFP (Roche, 1/1000 in 3% BSA in TBST) was added and incubated overnight at 4° C. Membrane was washed three times for five min. with TBST and incubated with anti-mouse Alexa Fluor 647 (Jackson ImmunoResearch Inc., 1/500 in 3% BSA in TBST) for one hour at r.t. Membrane was washed four times for five min. with TBST and visualized with an Azure Biosystems Sapphire Biomolecular Imager.
WT POLES-GFP was overexpressed in 293T cells as described above and lysate was treated with indicated concentrations of Example 2 (1 μL of 25× stock in DMSO) for 1.5, 2, 2.5, 3, 3.5 or 4 hours at 37° C. […] Images were quantified using ImageJ and the kinetic parameters were determined using GraphPad Prism (V7.02).).

[6] = tested on: MDA-MB-231 lysate; test: Gel-based in vitro JW-RF-001 competition of labeling with Example 4; format: binding; conditions: 30 μM Example 4, MDA-MB-231 lysate, one hour at r.t.
Procedure: MDA-MB-231 lysate (2 mg/mL, 25 μL) was treated with indicated concentrations of azide probes (Example 4) (1 μL of 25× stock in DMSO) for one hour at r.t. Click chemistry was initiated by the addition of TAMRA alkyne (Sigma-Aldrich, 30 μM, 25× stock in DMSO), tris(2-carboxyethyl)phosphine hydrochloride (TCEP, Alfa Aesar, 1 mM, fresh 50× stock in water), tris[(1-benzyl-1H-1,2,3-triazol-4-yl)methyl]amine (TBTA, Sigma-Aldrich, 100 μM, 16× stock in DMSO:tBuOH 1:4), and copper(II) sulfate (1 mM, 50× stock in water) to the lysate and incubated in the dark for one hour at r.t. SDS-PAGE reducing loading buffer (4×) was added and proteins were separated using a 10% SDS-PAGE gel. Gels were visualized using an Azure Biosystems Sapphire Biomolecular Imager, then stained using Coomassie. Images were quantified with ImageJ (V1.51).
MDA-MB-231 lysate (2 mg/mL, 25 μL) was treated with either 3 mM JW-RF-001 (1 μL of 25× stock in DMSO) or DMSO for one hour at r.t. Subsequently, lysate was incubated with 30 μM Example 4 (1 μL, of 25× stock in DMSO) for one hour at r.t. Click chemistry, reducing SDS-PAGE and visualization were performed as described above.

[7] = target: T4, PTP1B (Homo sapiens, UniProt P18031); conditions: reported by Hu et al., Eur. J. Org. Chem. 2016; cited from earlier work
T4 sequence (P18031 1-435): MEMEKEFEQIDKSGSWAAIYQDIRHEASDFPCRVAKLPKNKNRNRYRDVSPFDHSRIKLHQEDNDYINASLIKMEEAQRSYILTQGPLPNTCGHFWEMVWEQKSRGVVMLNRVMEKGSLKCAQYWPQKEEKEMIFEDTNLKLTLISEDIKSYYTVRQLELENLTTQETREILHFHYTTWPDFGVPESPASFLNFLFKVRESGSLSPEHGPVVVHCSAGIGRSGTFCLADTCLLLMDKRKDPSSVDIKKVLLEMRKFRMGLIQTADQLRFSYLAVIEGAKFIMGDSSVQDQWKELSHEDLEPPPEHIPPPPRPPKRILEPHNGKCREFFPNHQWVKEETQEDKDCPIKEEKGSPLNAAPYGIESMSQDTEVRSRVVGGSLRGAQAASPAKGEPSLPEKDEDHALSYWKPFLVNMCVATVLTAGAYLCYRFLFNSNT

SMILES: CC1=C[C@@]2(C[C@H](C)[C@H]3CC=C(C)[C@@H](O[C@@H]4O[C@H](CO)[C@@H](O)[C@H](O)[C@H]4O)[C@@H]3O2)OC1=O [Abiespiroside A, abiespiroside A]
- inhibitory activity against the production of nitric oxide [1]: potent inhibitory activity

SMILES: C=C1C[C@@]2(C[C@H](C)[C@H]3CC=C(CN=[N+]=[N-])C(=O)[C@@H]3O2)OC1=O [Example 4, (2R,4S,4aR,8aR)-7-(azidomethyl)-4-methyl-4′-methylene-3,3′,4,4a,4′,8a-hexahydro-5′H-spiro[chromene-2,2′-furan]-5′,8(5H)-dione]
- binding of the azide probe in lysate [6]: binded to cysteines

SMILES: CC1=C[C@@]2(C[C@H](C)[C@H]3CC=C(CO)C(=O)[C@@H]3O2)OC1=O [beshanzuenone C]
- IC50 [7]: 59.7 µM

SMILES: CC1=C[C@@]2(C[C@H](C)[C@H]3CC=C(C)C(=O)[C@@H]3O2)OC1=O [beshanzuenone D]
- IC50 [7]: 40.4 µM

Continued, in another order:

- preference for SHP2 over PTP1B [3]: 10 fold
- IC50 [3]: 44.9 ± 9.6 µM
- functional effect of binding on POLE3 (overlap of protein expression profile with POLE3 KD cells) ([4]; 30 μM, 6 h treatment): leads to the loss of function of POLE3
- upregulation of POLE ([4]; POLE3 KD and Example 2-treated (30 μM, 6 h)): fourfold
- kinact [5]: 0.0045 s⁻¹
- Ki ([5]; read-out: POLE3-GFP binding constant Ki): 56.9 µM
SMILES: C=C1C[C@@]2(C[C@H](C)[C@H]3CC=C(C)C(=O)[C@@H]3O2)OC1=O [Example 2, (2R,4S,4aR,8aR)-4,7-dimethyl-4′-methylene-3,3′,4,4a,4′,8a-hexahydro-5′H-spiro[chromene-2,2′-furan]-5′,8(5H)-dione]
- γH2AX signal, combination with etoposide versus etoposide only-treated cells ([2]; 30 μM etoposide combined with 30 μM Example 2, 6 hours): significantly stronger γH2AX signal
- γH2AX signal intensity, compound alone ([2]; 30 μM, 6 hours): did not lead to an increase

- preference for SHP2 over PTP1B [3]: 10 fold
- IC50 [3]: 33.3 ± 0.9 µM
SMILES: C=C1C[C@@]2(C[C@H](C)[C@H]3CC=C(CO)C(=O)[C@@H]3O2)OC1=O [Example 3, (2R,4S,4aR,8aR)-7-(hydroxymethyl)-4-methyl-4′-methylene-3,3′,4,4a,4′,8a-hexahydro-5′H-spiro[chromene-2,2′-furan]-5′,8(5H)-dione]

- preference for SHP2 over PTP1B [3]: 10 fold
- IC50 [3]: 3.3 ± 0.1 µM
SMILES: C=C1CC2(CC(C)C3CC=C(CO)C(O)C3O2)OC1=O (stereo not shown) [Example 3′]
